Assay results from article PMC7614683, “A small molecule PI3Kα activator for cardioprotection and neuroregeneration” (Nature, 2023).

Tests used:
human p110α/p85α (PI3Kα) = molecular target: T1, human p110α/p85α (PI3Kα) (Homo sapiens, UniProt P42336); experiment: ADP-Glo in vitro lipid kinase assay, PI3Kα; type: biochemical; conditions: for Maximum activity relative to 1938 / Maximum activity relative to pY control: SI Table 3; for EC50: SI Table 3, 1938 analogues, read-out: EC50; for reduction in activity: relative to 1938
T1 construct: Full-length human p110α was expressed either in a complex with full-length human p85α (for HTS, biochemistry and HDX-MS); 6xHis tag followed by TEV protease site (N); host or cells: Spodoptera frugiperda Sf9, baculovirus
T1 sequence (P42336 whole entry): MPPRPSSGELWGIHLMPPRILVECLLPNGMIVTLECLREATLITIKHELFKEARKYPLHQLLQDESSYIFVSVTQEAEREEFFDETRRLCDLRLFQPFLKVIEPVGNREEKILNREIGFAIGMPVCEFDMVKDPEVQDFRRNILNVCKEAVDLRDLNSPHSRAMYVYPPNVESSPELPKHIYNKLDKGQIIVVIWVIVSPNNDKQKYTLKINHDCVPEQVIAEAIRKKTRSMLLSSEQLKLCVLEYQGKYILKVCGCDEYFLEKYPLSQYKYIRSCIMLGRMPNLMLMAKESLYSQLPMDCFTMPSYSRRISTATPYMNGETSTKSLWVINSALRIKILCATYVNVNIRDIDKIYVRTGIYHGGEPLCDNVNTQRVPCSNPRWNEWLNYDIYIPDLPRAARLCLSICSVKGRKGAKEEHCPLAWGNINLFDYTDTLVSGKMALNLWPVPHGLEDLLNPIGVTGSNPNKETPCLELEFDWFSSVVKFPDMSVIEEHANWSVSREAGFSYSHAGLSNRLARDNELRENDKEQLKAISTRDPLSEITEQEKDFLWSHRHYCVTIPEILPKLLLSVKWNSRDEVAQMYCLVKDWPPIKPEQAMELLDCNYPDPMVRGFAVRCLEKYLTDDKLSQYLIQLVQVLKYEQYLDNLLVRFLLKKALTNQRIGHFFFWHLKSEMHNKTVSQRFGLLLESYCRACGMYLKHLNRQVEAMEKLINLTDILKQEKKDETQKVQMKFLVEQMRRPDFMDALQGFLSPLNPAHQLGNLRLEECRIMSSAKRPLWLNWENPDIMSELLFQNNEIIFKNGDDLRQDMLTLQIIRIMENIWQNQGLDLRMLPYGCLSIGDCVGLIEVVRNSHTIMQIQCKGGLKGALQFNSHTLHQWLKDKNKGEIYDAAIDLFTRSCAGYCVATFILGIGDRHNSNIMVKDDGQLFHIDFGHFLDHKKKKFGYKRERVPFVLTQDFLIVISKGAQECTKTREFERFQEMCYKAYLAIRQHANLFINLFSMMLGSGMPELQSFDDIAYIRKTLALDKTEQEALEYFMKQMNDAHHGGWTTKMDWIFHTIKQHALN
T1 sequence (P27986 whole entry partner): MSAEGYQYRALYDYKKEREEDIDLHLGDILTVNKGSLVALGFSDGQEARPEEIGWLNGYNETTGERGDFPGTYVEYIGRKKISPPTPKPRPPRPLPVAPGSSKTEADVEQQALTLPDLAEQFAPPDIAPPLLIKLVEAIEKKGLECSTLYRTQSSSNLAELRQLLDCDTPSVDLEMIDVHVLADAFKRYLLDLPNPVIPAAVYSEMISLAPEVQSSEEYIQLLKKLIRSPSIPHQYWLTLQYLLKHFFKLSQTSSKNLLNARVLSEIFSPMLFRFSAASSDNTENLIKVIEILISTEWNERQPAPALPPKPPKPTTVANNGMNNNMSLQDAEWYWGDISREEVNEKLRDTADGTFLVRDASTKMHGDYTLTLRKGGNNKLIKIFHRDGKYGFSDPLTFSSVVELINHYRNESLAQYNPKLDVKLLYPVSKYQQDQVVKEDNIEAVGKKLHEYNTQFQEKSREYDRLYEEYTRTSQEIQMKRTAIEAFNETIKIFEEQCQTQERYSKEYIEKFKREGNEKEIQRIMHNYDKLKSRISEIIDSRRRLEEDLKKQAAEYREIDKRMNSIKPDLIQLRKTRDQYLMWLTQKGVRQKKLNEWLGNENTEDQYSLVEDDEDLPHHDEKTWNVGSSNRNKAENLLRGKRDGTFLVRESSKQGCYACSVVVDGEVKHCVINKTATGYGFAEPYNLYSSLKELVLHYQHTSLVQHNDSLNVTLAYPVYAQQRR
Method: Kinase reactions were performed with ADP-Glo kinase assay kit (Promega Corporation). The enzyme, substrate and compounds were diluted in reaction buffer (20 mM HEPES, 50 mM NaCl, 50 mM KCl, 3 mM MgCl2, 1 mM EGTA, 1 mM TCEP, pH 7.4). Final concentrations of PI3Kα and PI3Kδ used were 25 nM and 50 nM for PI3Kβ. Liposomes (5% brain PI(4,5)P2, 20% brain phosphatidylserine, 45% brain phosphatidylethanolamine, 15% brain phosphatidylcholine, 10% cholesterol, 5% sphingomyelin (Avanti Polar Lipids)) were used at a final concentration of 1 mg/ml.
For the HTS, the reaction mixture contained 0.75 μl enzyme, 15 nl compound and/or pY and 0.75 μl of liposome substrate mixed with ATP. […] (GL Biochem, Shanghai Ltd). ATP was used at a final concentration of 500 μM unless otherwise stated. The final DMSO concentration in the assay was 1%. The experiments were performed at room temperature for 3 h using 1536-well white-polystyrene plates (Corning #3729) before addition of 2 μl of ADP-Glo R1 to terminate the reaction. The plate was incubated for 40 min, followed by addition of 4 μl of ADP-Glo R2 and incubated further for 60 min in the dark. Luminescence was read using an EnVision (PerkinElmer) plate reader. All analyses were performed using Genedata Screener.
For re-screening of HTS hits and routine compound profiling, the reaction mixture contained 2 μl PI3K enzyme, 2 μl compound and/or pY and 2 μl of liposome substrate mixed with ATP. ATP was used at a final concentration of 500 μM for PI3Kα and PI3Kβ and at 200 μM for PI3Kδ, unless otherwise stated. The final DMSO concentration in the assay was 1%. The experiments were performed at room temperature for 3 h using 384 white-polystyrene plates (Corning #3824) before addition of 6 μl of ADP-Glo R1 to terminate the reaction. The plate was incubated for 45 min, followed by addition of 12 μl of ADP-Glo R2 and incubated further for 60 min in the dark. Luminescence was read using a Sense (Hidex) plate reader. […] All analyses were performed using GraphPad Prism 7.
For characterisation of the effects of 1938 on in vitro PI3K enzymology, all reactions were performed at room temperature with 384 white-polystyrene plates (Corning #3574). The final DMSO concentration in the assay was between 0.5%-1.8%. The reaction mixture contained 2 μl PI3K enzyme, 2 μl compound and/or pY and 2 μl of liposome substrate mixed with ATP. ATP was used at a final concentration of 200 μM, unless otherwise stated.

PI3Kα-KO MEFs = experiment: pAKT S473 western blot, PI3Kα-KO MEFs; type: cell-based, mouse; conditions: TGX-221 0.2 μM
Method: Unless otherwise indicated, western blotting was performed with ECL detection. For time course studies, A549 cells were seeded at 250,000 cells per well in 6-well plates in RPMI (10% FBS + 1 mM Na-Pyruvate + 1% P/S) and allowed to adhere overnight. The next day they were serum-starved for 4 h prior to treatment with 100 nM insulin or 5 μM 1938, for the indicated time (5 min to 48 h) at 37°C, 5% CO2. For 1938 titration assays in MEFs, cells were seeded at 150,000 cells per well in 6-well plates and allowed to adhere overnight. The next day they were serum-starved for 4 h prior to treatment with insulin (1 μM), 1938 (0.2 to 30 μM, final DMSO concentration of 1.5%) or inhibitors (final DMSO concentration of ≤1.5%) for 15 min at 37°C, 5% CO2. Cells were washed twice with cold PBS and lysed using cold RIPA buffer (25 mM Tris.HCl pH 7.6, 150 mM NaCl, 1% NP-40, 1% sodium deoxycholate, 0.1% SDS supplemented with protease/phosphatase inhibitor cocktail from Merck). To remove cell debris, homogenates were spun at 13,000 rpm for 15 min at 4°C and the supernatant fraction recovered. Protein concentration was determined by colorimetric assay (BCA assay, Promega). Protein extracts were resolved by SDS-PAGE, transferred to nitrocellulose membranes, and incubated overnight at 4°C with specific antibodies as follows: anti-vinculin (Sigma #V9131) and the following antibodies from Cell Signaling Technology (CST): pAKT-S473 (CST #9271), pS6-S240/244 (CST #2215), pPRAS40-T246 (CST #2640) and total S6 (CST #2317). Primary ntibodies were used at 1:1000 dilution except anti-vinculin (1:10000). Secondary antibodies are also from Cell Signalling Technology: Anti rabbit IgG, HRP linked Antibody (CST #7074S), Anti mouse IgG, HRP linked Antibody (CST #7076S). Raw and uncropped blots are shown in Supplementary Fig. 1.

A549 cells = experiment: Phosphoinositide quantification by mass spectrometry, A549; type: cell-based, human; conditions: A549, 2 min
Method: (§1) A549 cells (5.10^5) or wild-type MEFs (3.10^5) were plated in complete media onto 3.5 cm dishes or 60 mm dishes respectively for 24 h, prior to FCS-free starvation media for 16 h. MEFs, in addition, were supplemented with arachidonic acid in the FCS-free starvation media as previously described. […] Reactions were terminated in 600 μl ice-cold 1 M HCl and cells scraped and resuspended, then divided into two equal samples in eppendorfs. […] The data are shown as response ratios, calculated by normalizing the multiple reaction monitoring (MRM)-targeted lipid integrated response area to that of a known amount of relevant internal standard. To account for any cell input variability, PIP3 response ratios were normalized to C38:4-PI response ratios; while PI(3,4)P2 response ratios were normalised to PI(4,5)P2 response ratios. Data shown are mean ±SD for n ≥3, except for non-DMSO control in MEF PIP3 measurements where n=1.

MEFs = experiment: Phosphoinositide quantification by mass spectrometry, MEFs; type: cell-based, mouse; conditions: 1938 at 5 μM, PDGF 20 ng/ml 2 min
Method: as §1

| Molecule | Maximum activity relative to 1938 (human p110α/p85α (PI3Kα)) | Maximum activity relative to pY control (human p110α/p85α (PI3Kα)) | further results |
| --- | --- | --- | --- |
| COc1cc(N2CCN(C)CC2)ccc1Nc1cc(Nc2cccc3c2N(C(C)=O)CC3)ccn1 [Compound 1889] | 102% | – | EC50 (human p110α/p85α (PI3Kα)): 56 ± 24 µM |
| CCN1CCN(c2ccc(Nc3cc(Nc4ccncn4)ccn3)cc2)CC1 [Compound 2106] | 4% | 14 ± 13% | reduction in activity (human p110α/p85α (PI3Kα)): > 95% |
| CCN1CCN(c2ccc(Nc3nccc(Nc4cccc5c4N(C(C)=O)CC5)n3)cc2)CC1 [Compound 2152] | 4% | 16 ± 8% | reduction in activity (human p110α/p85α (PI3Kα)): > 95% |
| Cc1cc(C(C)Nc2ccccc2)c2nc(N3CCOCC3)cc(=O)n2c1 (stereo not drawn) [TGX-221, reference compound] | – | – | effect on insulin-stimulated pAKT^S473 (PI3Kα-KO MEFs): sensitivity of insulin-stimulated pAKT^S473 |
| PDGF | – | – | PIP3 response (A549 cells): no PIP3 induced; PI(3,4)P2 signal by mass spectrometry (MEFs): detected |

Second part, led by results:

| Maximum activity relative to 1938 (human p110α/p85α (PI3Kα)) | Maximum activity relative to pY control (human p110α/p85α (PI3Kα)) | Molecule | further results |
| --- | --- | --- | --- |
| 80% | – | COc1cc(Nc2cc(Nc3cccc4c3N(C(C)=O)CC4)ccn2)cc(OC)c1OC [Compound 1887] | EC50 (human p110α/p85α (PI3Kα)): 36 ± 5 µM |
| 9% | 36 ± 8% | CC(=O)N1CCc2cccc(Nc3ccnc(Nc4ccccc4)c3)c21 [Compound 2016] | – |
